Paper PMC9904497 (2023)

How the values were obtained:
[1] = system: PQS-2302-WT-CY5 (RNA, G4) GGGGAGGAGG; experiment: microscale thermophoresis (MST); details: 150 mM KCl; 10 mM Tris-HCl pH 7.5 folding buffer; BBM stock 80 µM mixed 1:1
[2] = system: PQS-675-WT-CY5 (RNA, G4) GGGCGGGCGGCCUGCAGGGACAUGGG; experiment: microscale thermophoresis (MST); details: 150 mM KCl; 10 mM Tris-HCl pH 7.5 folding buffer; BBM stock 80 µM mixed 1:1
[3] = system: TERRA-WT-CY5 (RNA, G4) UUAGGGUUAGGGUUAGGGUUAGGG; experiment: microscale thermophoresis (MST); details: 150 mM KCl; 10 mM Tris-HCl pH 7.5 folding buffer; BBM stock 80 µM mixed 1:1
[4] = system: PQS-1682-WT (RNA, G4) GGAGGUGGAUGG; experiment: fluorescence enhancement; details: 150 mM KCl; 10 mM Tris-HCl pH 7.5; 2 µM RNA, 2 µM dye
[5] = system: PQS-91-WT (RNA, G4) GGGGGGAGGGCCGGG; experiment: fluorescence enhancement; details: 150 mM KCl, 10 mM Tris-HCl pH 7.5, 2 µM RNA, 2 µM dye
[6] = system: PQS-1234-WT (RNA, G4) GGGUUAGCCAGGGCCGAGGGGGGCUGGG; experiment: fluorescence enhancement; details: 150 mM KCl; 10 mM Tris-HCl pH 7.5; 2 µM RNA, 2 µM dye; higher than in LiCl
[7] = system: PQS-1276-WT (RNA, G4) GGGCCUCGGGGAACGGGGGCCGGG; experiment: fluorescence enhancement; details: 150 mM KCl; 10 mM Tris-HCl pH 7.5; 2 µM RNA, 2 µM dye; higher than in LiCl
[8] = system: PQS-2302-WT (RNA, G4) GGGGAGGAGG; experiment: fluorescence enhancement; details: 150 mM KCl; 10 mM Tris-HCl pH 7.5; 2 µM RNA, 2 µM dye; higher than in LiCl

| Compound | KD [1] | KD [2] | KD [3] | binding [4] | binding ([5]; only slightly higher than in LiCl) | binding [6] | binding [7] | binding [8] | binding ([5]; higher than in LiCl) |
| --- | --- | --- | --- | --- | --- | --- | --- | --- | --- |
| COc1cc2c3cc1Oc1c(OC)c(OC)cc4c1[C@@H](Cc1ccc(O)c(c1)Oc1ccc(cc1)C[C@@H]3N(C)CC2)N(C)CC4 | 264.76 nM | 10.78 nM | 11550 nM |  |  |  |  |  |  |
| CCc1c(C)c2cc3nc(cc4nc(cc5c(CC)c(C)c(cc1[nH]2)n5C)C(C)=C4CCC(=O)O)C(CCC(=O)O)=C3C |  |  |  | weak | weak | yes | yes | yes |  |
| Cc1ccc2c(c1)sc(-c1ccc(N(C)C)cc1)[n+]2C |  |  |  | weak |  | yes | yes | yes | yes |
